# Experimental data from patent US10047113B2, “Feruloyl-CoA:monolignol transferase” (Wisconsin Alumni Research Foundation (WARF), priority 2010, dated 2018).
# Assays:
# [1] = test system: feruloyl-CoA:monolignol transferase (FMT); experiment: Feruloyl-CoA:monolignol transferase (FMT) enzymatic assay, UPLC detection of product; assay type: biochemical, Angelica sinensis; details: purified recombinant enzyme; for product formation from acyl-CoA substrate: coniferyl alcohol as acceptor, FIGS. 2, 6, 7; for FMT enzyme activity with monolignol as substrate: feruloyl-CoA as acyl donor, FIGS. 2, 4, 5
# Protocol: The feruloyl-CoA, p-coumaroyl-CoA, and caffeoyl-CoA substrates used in the FMT assay were enzymatically synthesized using the tobacco 4-coumarate-CoA-ligase (4CL) with a c-terminal HIS tag in pCRT7/CT TOPO, provided by Eran Pichersky. Following a method modified from Beuerle and Pichersky (Anal. Biochem. 302(2): 305-12 (2001)) 3.3 mg of ferulic acid, coumaric acid or caffeic acid, 2 mg coenzyme A, and 6.9 mg ATP were added to 50 mM Tris-hydrochloride pH 8 and 2.5 mM magnesium chloride in a final volume of 10 ml. The reaction was started by adding 0.25 mg 4CL, protein purified as described by the method of Beurerle and Pichershy. After a five-hour incubation at room temperature, additional 6.9 mg ATP, 2 mg coenzyme A, and 0.25 mg purified 4CL were added and the reaction was incubated overnight. The CoA esters were purified on an SPE cartridge as described in Beuerle and Pichersky (2001).
# (§1) The FMT activity assay contained 100 mM MOPS pH 6.8, 1 mM dithiothreitol (DTT), 1 mM feruloyl-CoA, 1 mM coniferyl alcohol, 3.9 μg of purified FMT protein and deionized water to a volume of 50 μL. After a 30-minute incubation, 1 μL of 10 M hydrochloric acid was added to stop the reaction. Because the product synthesized in the reaction, coniferyl ferulate (CAFA), is insoluble, 50 μL of methanol was added to solubilize the CAFA. Prior to UPLC, protein and insoluble material were removed by filtering through an Amicon Ultracel 10K membrane filter (Millipore). The flow-through was analyzed using an Acquity Ultra Performance LC with an Acquity UPLC BEH C18 1.7 μm 2.1×100 mm column and the Acquity Console and Empower 2 Software, all from Waters Corporation. The solvents used in this method were solvent A, 0.1% trifluoroacetic acid, and solvent B, 100% acetonitrile. Samples were analyzed using the following gradient conditions, 13% B, for 5 minutes, 1 minute linear gradient to 42% B, held for 4 minutes, 1 minute linear gradient to 100% B, held for 1 minutes and 3 minutes at 13% B with a flow rate of 0.3 ml/minute. This method was then used to analyze a 10 μL injection of each assay reaction; standards for each of the substrates along with chemically synthesized CAFA were used to determine retention times for each compound.
# Purified recombinant enzyme was assayed for FMT activity using a reaction mixture containing 2 mM coniferyl alcohol, […], 100 mM HEPES pH 7.4 and 1 mM DTT. The second most abundant BAHD acyltransferase gene when incubated with Coniferyl alcohol and feruloyl-CoA produced a compound with the retention time of authentic coniferyl ferulate (CAFA) (FIG. 2). […] The addition of methanol to 50% after stopping the enzyme with acid was required to analyze the product by UPLC. The insolubility of the product made partial purification easy as the product was separated from the substrates by centrifugation.
# This partial purified product was analyzed by NMR. The identity of the product as CAFA was confirmed by ^1H-NMR (FIG. 3). The enzyme was tested with p-coumaryl alcohol (FIG. 4) and sinapyl alcohol (FIG. 5) in addition to coniferyl alcohol (FIG. 2). The enzyme is active with all three monolignols, i.e., p-coumaryl alcohol, coniferyl alcohol and sinapyl alcohol. The enzyme was tested with p-coumaroyl-CoA (FIG. 6) and caffeoyl-CoA (FIG. 7) as well as feruloyl-CoA (FIG. 2).
# [2] = Solubility of the FMT reaction product; assay type: physicochemical
# Protocol: as §1, with “compound. […]” for “compound.”
SMILES,product formation from acyl-CoA substrate [1],FMT enzyme activity with monolignol as substrate [1],other results
CC(C)(COP(=O)(O)OP(=O)(O)OC[C@H]1O[C@@H](n2cnc3c(N)ncnc32)[C@H](O)[C@@H]1OP(=O)(O)O)[C@@H](O)C(=O)NCCC(=O)NCCSC(=O)/C=C/c1ccc(O)c(O)c1 [caffeoyl-CoA],very little product is produced,–,–
COc1cc(/C=C/CO)ccc1O [coniferyl alcohol],–,active,–
COc1cc(/C=C/COC(=O)/C=C/c2ccc(O)c(OC)c2)ccc1O [coniferyl ferulate],–,–,"solubility in assay reaction mixture ([2]; FMT activity assay, 100 mM MOPS pH 6.8, methanol added to solubilize): insoluble; solubility in water ([2]; product of enzyme reaction, methanol to 50% needed for UPLC): mostly insoluble in water"
COc1cc(/C=C/C(=O)SCCNC(=O)CCNC(=O)[C@H](O)C(C)(C)COP(=O)(O)OP(=O)(O)OC[C@H]2O[C@@H](n3cnc4c(N)ncnc43)[C@H](O)[C@@H]2OP(=O)(O)O)ccc1O [feruloyl-CoA],substantial product is formed,–,–
CC(C)(COP(=O)(O)OP(=O)(O)OC[C@H]1O[C@@H](n2cnc3c(N)ncnc32)[C@H](O)[C@@H]1OP(=O)(O)O)[C@@H](O)C(=O)NCCC(=O)NCCSC(=O)/C=C/c1ccc(O)cc1 [p-coumaroyl-CoA],very little product is produced,–,–
OC/C=C/c1ccc(O)cc1 [p-coumaryl alcohol],–,active,–
COc1cc(/C=C/CO)cc(OC)c1O [sinapyl alcohol],–,active,–
